# Experiments:
# Assay type in all cases: in vivo
# [1] = test system: mustard, wild (wild mustard, Sinapis arvensis); assay: Test D controlled growth environment herbicide test, pre- and postemergence; details: for Mustard, Wild plant response rating / Plant response rating (scale of 0 to 100), Mustard, Wild: 31 g ai/ha
# Text: Seeds of plant species selected from bluegrass (annual bluegrass, Poa annua), blackgrass (Alopecurus myosuroides), Canada thistle (Cirsium arvense), canarygrass (Phalaris minor), chickweed (common chickweed, Stellaria media), geranium, cutleaf (cutleaf geranium, Geranium dissectum), galium (catchweed bedstraw, Galium aparine), bromegrass, downy (downy bromegrass, Bromus tectorum), field poppy (Papaver rhoeas), field violet (Viola arvensis), foxtail, green (green foxtail, Setaria viridis), deadnettle (henbit deadnettle, Lamium amplexicaule), ryegrass, Italian (Italian ryegrass, Lolium multiflorum), kochia (Kochia scoparia), lambsquarters (Chenopodium album), oilseed rape (Brassica napus), pigweed (Amaranthus retroflexus), chamomile (scentless chamomile, Matricaria inodora), Russian thistle (Salsola kali), speedwell (bird's-eye speedwell, Veronica persica), barley, spring (spring barley, Hordeum vulgare), wheat, spring (spring wheat, Triticum aestivum), buckwheat, wild (wild buckwheat, Polygonum convolvulus), mustard, wild (wild mustard, Sinapis arvensis), oat, wild (wild oat, Avena fatua), radish, wild (wild radish, Raphanus raphanistrum), windgrass (Apera spica-venti), barley, winter (winter barley, Hordeum vulgare), and wheat, winter (winter wheat, Triticum aestivum) were planted into a silt loam soil and treated preemergence with test chemicals formulated in a non-phytotoxic solvent mixture which included a surfactant.
# At the same time, these species were planted in pots containing Redi-Earth® planting medium (Scotts Company, 14111 Scottslawn Road, Marysville, Ohio 43041) comprising spaghnum peat moss, vermiculite, wetting agent and starter nutrients and treated with postemergence applications of the test chemicals formulated in the same manner. Plants ranged in height from 2 to 18 cm (1- to 4-leaf stage). Treated plants and controls were maintained in a controlled growth environment for 14 to 21 d after which time all species were compared to controls and visually evaluated. Plant response ratings, summarized in Table D, are based on a scale of 0 to 100 where 0 is no effect and 100 is complete control. A dash (-) response means no test result.
# [2] = test system: pigweed (Amaranthus retroflexus); assay: Test A greenhouse herbicide test, pre- and postemergence
# Outline: (§1)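 Seeds in loam–sand blend received a preemergence directed soil spray; plants at 2–10 cm, one- to two-leaf stage, received postemergence sprays. Compounds in a non-phytotoxic solvent with surfactant. After about 10 d in a greenhouse, injury rated visually versus untreated controls on a 0–100 scale (100 = complete control).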
# kochia (Kochia scoparia) = assay: as above
# Outline: as §1
# corn (Zea mays) = assay: as above; details: Postemergence; for Plant response rating, Corn: 125 g ai/ha, visual rating after approx. 10 d, 0 to 100 scale (0 no effect, 100 complete control); for Corn plant response rating: 500 g ai/ha, 0 to 100 scale, 0 is no effect, 100 is complete control
# Outline: as §1
# [3] = test system: ryegrass, Italian (Italian ryegrass, Lolium multiflorum); assay: as above
# Outline: as §1
# [4] = test system: foxtail, giant (giant foxtail, Setaria faberii); assay: as above
# Outline: as §1
# [5] = test system: wheat (Triticum aestivum); assay: as above; details: Postemergence; for Plant response rating, Wheat: 125 g ai/ha; for Wheat plant response rating: 500 g ai/ha, 0 to 100 scale, 0 is no effect, 100 is complete control
# Outline: as §1
# [6] = test system: barnyardgrass (Echinochloa crus-galli); assay: as above
# Outline: as §1
# [7] = test system: ragweed (common ragweed, Ambrosia elatior); assay: as above
# Outline: as §1
# [8] = Postemergence, scale 0 to 100 (0 no effect, 100 complete control)
# [9] = Postemergence, 125 g ai/ha, visual rating on scale 0 (no effect) to 100 (complete control), 14 to 21 d
# [10] = Postemergence, 250 g ai/ha, scale 0 to 100 (0 no effect, 100 complete control)
# [11] = Preemergence, 62 g ai/ha, scale 0 to 100 (0 no effect, 100 complete control)
# [12] = Preemergence, 125 g ai/ha, scale 0 to 100 (0 no effect, 100 complete control)
# [13] = Preemergence, 250 g ai/ha, scale 0 to 100, 0 no effect, 100 complete control
# [14] = postemergence, 62 g ai/ha, scale 0 to 100, 0 no effect, 100 complete control
# [15] = Postemergence, 125 g ai/ha, visual rating after approx. 10 d, 0 to 100 scale (0 no effect, 100 complete control)
# [16] = Postemergence, 500 g ai/ha, 0 to 100 scale, 0 is no effect, 100 is complete control
# [17] = Preemergence, 125 g ai/ha, 0 to 100 scale where 0 is no effect and 100 is complete control
# [18] = Preemergence, 500 g ai/ha, 0 to 100 scale, 0 no effect, 100 complete control
# [19] = visual rating after approx. 10 d, 0 to 100 scale (0 no effect, 100 complete control)
SMILES,"Plant response rating, Mustard, Wild [1, 9]","Plant response rating, Mustard, Wild [1, 10]","Plant response rating, Mustard, Wild [1, 14]","Plant response rating, Pigweed [2, 15]","Pigweed plant response rating [2, 16]","Pigweed plant response rating [2, 17]","Plant response rating, Pigweed [2, 18]","Plant response rating, Kochia (kochia (Kochia scoparia); [15])",Kochia plant response rating (kochia (Kochia scoparia); [16]),Kochia plant response rating (kochia (Kochia scoparia); [17]),"Plant response rating, Kochia (kochia (Kochia scoparia); [18])","Plant response rating, Corn (corn (Zea mays))",Corn plant response rating (corn (Zea mays)),"Ryegrass, Italian plant response rating [3, 16]","Ryegrass, Italian plant response rating [3, 17]","Plant response rating, Ryegrass, Italian [3, 18]","Plant response rating, Foxtail, Giant [4, 15]","Foxtail, Giant plant response rating [4, 16]","Foxtail, Giant plant response rating [4, 17]","Plant response rating, Foxtail, Giant [4, 18]",also measured
Cn1nc(Br)c(O)c(-c2cccc3ccccc23)c1=O [Compound 20],100,100,100,100,100,80,100,90,100,80,100,20,30,100,90,100,30,100,40,90,"Mustard, Wild plant response rating [1, 8]: 75; Plant response rating (scale of 0 to 100), Mustard, Wild ([1]; Preemergence): 25; Plant response rating, Mustard, Wild [1, 11]: 35; Plant response rating, Mustard, Wild [1, 12]: 100; Plant response rating, Mustard, Wild [1, 13]: 100; Plant response rating, Ryegrass, Italian [3, 15]: 100; Plant response rating, Wheat [5, 19]: 20; Wheat plant response rating [5]: 30; Plant response rating, Barnyardgrass [6, 15]: 30; Barnyardgrass plant response rating [6, 16]: 100; Barnyardgrass plant response rating [6, 17]: 30; Plant response rating, Barnyardgrass [6, 18]: 90; Plant response rating, Ragweed [7, 15]: 80; Ragweed plant response rating [7, 16]: 100; Ragweed plant response rating [7, 17]: 30; Plant response rating, Ragweed [7, 18]: 90"
Cc1cc(C)c2ccccc2c1-c1c(O)c(C)nn(C)c1=O [Compound 21],100,100,100,100,100,100,100,100,100,30,90,50,60,100,100,100,100,100,90,100,"Mustard, Wild plant response rating [1, 8]: 100; Plant response rating, Ryegrass, Italian [3, 15]: 100; Plant response rating, Wheat [5, 19]: 10; Wheat plant response rating [5]: 60; Plant response rating, Barnyardgrass [6, 15]: 90; Barnyardgrass plant response rating [6, 16]: 90; Barnyardgrass plant response rating [6, 17]: 90; Plant response rating, Barnyardgrass [6, 18]: 100; Plant response rating, Ragweed [7, 15]: 100; Ragweed plant response rating [7, 16]: 100; Ragweed plant response rating [7, 17]: 100; Plant response rating, Ragweed [7, 18]: 100"
Cc1nn(C)c(=O)c(-c2c(C)sc3ccc(Br)cc23)c1O [Compound 22],100,100,95,100,100,100,100,100,100,70,100,0,0,100,100,100,60,90,70,90,"Mustard, Wild plant response rating [1, 8]: 90; Plant response rating (scale of 0 to 100), Mustard, Wild ([1]; Preemergence): 5; Plant response rating, Mustard, Wild [1, 11]: 65; Plant response rating, Mustard, Wild [1, 12]: 85; Plant response rating, Mustard, Wild [1, 13]: 95; Plant response rating, Ryegrass, Italian [3, 15]: 80; Plant response rating, Wheat [5, 19]: 0; Wheat plant response rating [5]: 0; Plant response rating, Barnyardgrass [6, 15]: 30; Barnyardgrass plant response rating [6, 16]: 50; Barnyardgrass plant response rating [6, 17]: 10; Plant response rating, Barnyardgrass [6, 18]: 70; Plant response rating, Ragweed [7, 15]: 90; Ragweed plant response rating [7, 16]: 100; Ragweed plant response rating [7, 17]: 90; Plant response rating, Ragweed [7, 18]: 90"
Cc1ccc2ccccc2c1-c1c(O)c(Br)nn(C)c1=O [Compound 23],100,100,95,100,100,100,100,100,100,80,100,40,50,100,80,90,90,90,90,90,"Plant response rating, Ryegrass, Italian [3, 15]: 100; Plant response rating, Wheat [5, 19]: 50; Wheat plant response rating [5]: 80; Plant response rating, Barnyardgrass [6, 15]: 80; Barnyardgrass plant response rating [6, 16]: 90; Barnyardgrass plant response rating [6, 17]: 90; Plant response rating, Barnyardgrass [6, 18]: 90; Plant response rating, Ragweed [7, 15]: 90; Ragweed plant response rating [7, 16]: 100; Ragweed plant response rating [7, 17]: 90; Plant response rating, Ragweed [7, 18]: 90"
Cc1cc2ccccc2c(-c2c(O)c(C)nn(C)c2=O)c1C [Compound 34],100,100,85,90,90,90,100,70,80,30,60,0,0,100,100,100,30,90,40,90,"Mustard, Wild plant response rating [1, 8]: 80; Plant response rating (scale of 0 to 100), Mustard, Wild ([1]; Preemergence): 15; Plant response rating, Mustard, Wild [1, 11]: 25; Plant response rating, Mustard, Wild [1, 12]: 75; Plant response rating, Mustard, Wild [1, 13]: 100; Plant response rating, Ryegrass, Italian ([3]; Postemergence, 125 g ai/ha, 0 to 100 scale where 0 is no effect and 100 is complete control): 100; Plant response rating, Wheat ([5]; 0 to 100 scale where 0 is no effect and 100 is complete control): 20; Wheat plant response rating [5]: 40; Plant response rating, Barnyardgrass [6, 15]: 30; Barnyardgrass plant response rating [6, 16]: 90; Barnyardgrass plant response rating [6, 17]: 20; Plant response rating, Barnyardgrass [6, 18]: 80; Plant response rating, Ragweed [7, 15]: 90; Ragweed plant response rating [7, 16]: 100; Ragweed plant response rating [7, 17]: 80; Plant response rating, Ragweed [7, 18]: 90"

# From patent US10597388B2, “Pyridazinone herbicides” (FMC CORPORATION, priority 2014, dated 2020)
